US5914325A, “Steroids with radical-attracting aromatic substituents, process for the production thereof and pharmaceutical compounds containing the said substances” (Jenapharm GmbH, priority 1993, dated 1999)

Legend:
[1] = test system: lipid peroxidation; assay: Inhibition of lipid peroxidation in vitro, thiobarbituric acid test (synaptosomal membrane fraction, Fenton's reagent); conditions: read-out: Lipid peroxidation inhibition [IC50], iron(II) chloride/hydrogen peroxide, 30 min at 37° C.
[2] = test system: LDL oxidation; assay: Inhibition of LDL oxidation in vitro, method of Esterbauer et al (1988), CuSO4, 234 nm; format: biochemical; conditions: 1 μM, LDL isolated from human whole blood, room temperature, at least 8 h
Protocol: The measurement of in vitro inhibition of LDL oxidation was performed in accordance with Esterbauer et al (1988): Effect of peroxidative conditions on human plasma low density lipoproteins. In: Eicosanoids, lipid peroxidation and cancer (ed. Nigam et al), pages 203-214, Springer-Verlag,Berlin, Heidelberg, New York.
The values listed in Table 2 for inhibition of LDL oxidation represent examples for cardiovascular activities.
Testing of the substances for inhibitory action with regard to LDL oxidation, by the method of Esterbauer et al (1988), was carried out as follows:
The reaction mixture is incubated at room temperature over a period of at least 8 h and followed spectral photometrically (the absorption maximum of the oxidized LDL is at 234 nm). In accordance with the extinction changes, recorded at the measurement wavelength of 234 nm, in the presence or absence of test substances or in comparison of the native and the oxidized LDL, definitive statements on the influence on the oxidized LDL by the action of the test substance.
Dosage-action analysis of the test substances.

Row | Molecule | IC50 [1] [µM] | LDL oxidation inhibition (prolongation of lag phase in min) [2] [min]
1 | COC1(OC)CCC2=C(CC[C@@H]3[C@@H]2CC[C@@]2(C)[C@H]3CC[C@@]2(O)Cc2ccc(N(C)C)cc2)C1 [17α-4'-N,N-Dimethylphenylmethyl-3,3-dimethoxyestr-5(10)-ene-17-ol] | 5.5 | –
2 | C[C@]12CC[C@@H]3c4ccc(O)cc4CC[C@H]3[C@@H]1CC[C@@H]2O [17β-Estradiol, reference compound] | 12.4 | 40
3 | CN(C)c1ccc(C2=CC[C@H]3[C@@H]4CCc5cc(O)ccc5[C@H]4CC[C@]23C)cc1 [17-4'-N,N-Dimethylaminophenylestra-1,3,5(10),16-tetraene-3-ol] | 4.5 | –
4 | COc1ccc2c(c1)CCC1C2CCC2(C)C1CCC2(O)C[Se]c1c(C)cc(O)cc1C (stereo not drawn) [17α-2',6'-Dimethyl-4'-hydroxyphenylselenomethyl-3-methoxyestra-1,3,5(10)-triene-17-ol] | 1.97 | –
5 | C[C@]12CCC(=O)C[C@@H]1CC[C@@H]1[C@@H]2CC[C@@]2(C)[C@H]1CC[C@@]2(O)CSc1ccc(O)cc1 [17α-4'-Hydroxyphenylmercaptomethyl-17-hydroxy-5α-androstan-3-one] | 4.75 | –
6 | CN(C)c1ccc(C[C@]2(O)CC[C@H]3[C@@H]4CCC5=CC(=O)CC[C@@H]5[C@H]4CC[C@@]32C)cc1 [17α-4'-N,N-Dimethylaminophenylmethyl-17-hydroxyestr-4-ene-3-one] | > 10 | –
7 | COC1(OC)CCC2=C(CC[C@@H]3[C@@H]2CC[C@@]2(C)[C@H]3CC[C@@]2(O)CSc2ccc(O)cc2)C1 [17α-4'-Hydroxyphenylmercaptomethyl-3,3-dimethoxyestr-5(10)-ene-17-ol] | 1.46 | –
8 | CN(C)c1ccc(C[C@]2(O)CC[C@H]3[C@@H]4CCc5cc(O)ccc5[C@H]4CC[C@@]32C)cc1 [17α-4'-N,N-Dimethylaminophenylmethylestra-1,3,5(10)-triene-3,17-diol] | 3.53 | –
9 | CN(C)c1ccc(C[C@]2(O)CC[C@H]3[C@@H]4CCc5cc(O)ccc5C4=CC[C@@]32C)cc1 [17α-4'-N,N-Dimethylaminophenylmethylestra-1,3,5(10),9(11)-tetraene-3,17-diol] | 2.1 | –
10 | C[C@]12CC[C@H]3[C@@H](CCC4=CC(=O)CC[C@@H]43)[C@@H]1CC[C@@]2(O)CSc1ccc(O)cc1 [17α-4'-Hydroxyphenylmercaptomethyl-17-hydroxyestr-4-ene-3-one] | 8.6 | –
11 | Cc1cc(C2=C[C@@H]3[C@H](CC[C@]4(C)[C@@H](O)CC[C@@H]34)c3ccc(O)cc32)cc(C)c1O [6-2',6'-Dimethyl-4'-hydroxyphenylestra-1,3,5(10),6-tetraene-3,17β-diol] | 0.95 | 180
12 | CN(C)c1ccc([C@]2(O)CC[C@H]3[C@@H]4CCc5cc(O)ccc5[C@H]4CC[C@@]32C)cc1 [17α-4'-N,N-Dimethylaminophenylestra-1,3,5(10)-triene-3,17-diol] | 0.95 | 170
13 | COc1ccc2c(c1)CCC1C2CCC2(C)C1CCC2(O)C[Se]c1c(C(C)(C)C)cc(O)cc1C(C)(C)C (stereo not drawn) [17α2',6'-Di-tert.-butyl-4'-hydroxyphenylselenomethyl-3-methoxyestra-1,3,5(10)-triene-17-ol] | 4.97 | –
14 | Cc1cc(O)cc(C)c1CC1(O)CCC2C3CCC4=CC(=O)CCC4C3CCC21C (stereo not drawn) [17α-2',6'-Dimethyl-4'-hydroxyphenylmethyl-17-hydroxyestr-4-ene-3-one] | 1.92 | –
15 | C[C@]12CC[C@@H]3c4ccc(O)cc4CC[C@H]3[C@@H]1CC[C@@]2(O)Cc1ccc(O)cc1 [17α-4'-Hydroxyphenylmethylestra-1,3,5(10)-triene-3,17-diol] | 4.03 | 125
16 | C[C@]12CC[C@H]3[C@@H](C[C@@H](c4ccc(O)cc4)C4=CC(=O)CC[C@@]43C)[C@@H]1CC[C@@H]2O [6β-4'-Hydroxyphenyl-17β-hydroxyandrost-4-ene-3-one] | 60 | –
17 | C[C@]12CC[C@H]3[C@@H](CCC4=CC(=O)CC[C@@H]43)[C@@H]1CC[C@@]2(O)Cc1ccc(O)cc1 [17α-4'-Hydroxyphenylmethyl-17-hydroxyestr-4-ene-3-one] | 50 | –

Row | Molecule | IC50 [1] [µM] | LDL oxidation inhibition (prolongation of lag phase in min) [2] [min]
18 | Vitamin E [reference compound] | 132 | –
19 | Cc1c(C)c2c(c(C)c1O)CCC(C)(CN1CCN(c3cc(N4CCCC4)nc(N4CCCC4)n3)CC1)O2 (stereo not drawn) [Example U-78517F, reference compound] | – | 20
20 | CC1CC(=O)CC2CCC3C(CCC4(C)C3CCC4(O)CSc3ccc(O)cc3)C12C (stereo not drawn) [17α-4'-Hydroxyphenylmercaptomethyl-17-hydroxy-1α-methyl-5α-androstan-3-one] | 3.82 | –
21 | COc1ccc2c(c1)CC[C@@H]1[C@@H]2CC[C@@]2(C)[C@H]1CC[C@@]2(O)Cc1ccc(N(C)C)cc1 [17α-4'-N,N-Dimethylaminophenylmethyl-3-methoxyestra-1,3,5(10)-triene-17-ol] | 1.64 | 195
22 | C[C@]12CC=C3c4ccc(O)cc4CC[C@H]3[C@@H]1CC[C@@]2(O)Cc1ccc(O)cc1 [17α-4'-Hydroxyphenylmethylestra-1,3,5(10),9(11)-tetraene-3,17-diol] | 0.32 | 230
23 | CN(C)c1ccc(C2=C[C@@H]3[C@H](CC[C@]4(C)[C@@H](O)CC[C@@H]34)c3ccc(O)cc32)cc1 [6-4'-N,N-Dimethylaminophenylestra-1,3,5(10),6-tetraene-3,17β-diol] | 2.75 | –
24 | C[C@]12CC[C@@H]3c4ccc(O)cc4CC[C@H]3[C@@H]1CC[C@@]2(O)CSc1ccc(O)cc1 [17α-4'-Hydroxyphenylmercaptomethylestra-1,3,5(10)-triene-3,17-diol] | 2.2 | 120
25 | COc1ccc2c(c1)CCC1C2CCC2(C)C1CCC2(O)Cc1c(C(C)(C)C)cc(O)cc1C(C)(C)C (stereo not drawn) [17α-2',6'-Di-tert.-butyl-4'-hydroxyphenylmethyl-3-methoxyestra-1,3,5(10)-triene-17-ol] | 12.6 | –
26 | C[C@]12CC[C@@H]3c4ccc(O)cc4CC[C@H]3[C@@H]1C[C@@H](O)[C@@H]2O [Estriol, reference compound] | 22.5 | 20
27 | C[C@]12CC=C3c4ccc(O)cc4CC[C@H]3[C@@H]1CC[C@@]2(O)CSc1ccc(O)cc1 [17α-4'-Hydroxyphenylmercaptomethylestra-1,3,5(10),9(11)-tetraene-3,17-diol] | 0.44 | 270
28 | COc1ccc2c(c1)CC[C@@H]1[C@@H]2CC[C@@]2(C)[C@H]1CC[C@@]2(O)C[Se]c1ccc(N(C)C)cc1 [17α-4'-N,N-Dimethylaminophenylselenomethyl-3-methoxyestra-1,3,5(10)-triene-17-ol] | 1.33 | –
29 | COc1ccc2c(c1)CC[C@@H]1[C@@H]2CC[C@@]2(C)[C@H]1CC[C@@]2(O)Cc1cc(C)c(O)c(C)c1 | 2.34 | –
30 | C[C@]12CCC(=O)C=C1CC[C@@H]1[C@@H]2CC[C@@]2(C)[C@H]1CC[C@@]2(O)CSc1ccc(O)cc1 [17α-4'-Hydroxyphenylmercaptomethyl-17-hydroxyandrost-4-ene-3-one] | 10.9 | –
31 | COc1ccc2c(c1)CC[C@@H]1[C@@H]2CC[C@@]2(C)[C@H]1CC[C@@]2(O)CSc1ccc(O)cc1 [17α-4'-Hydroxyphenylmercaptomethyl-3-methoxyestra-1,3,5(10)-triene-17-ol] | 4.32 | –
32 | COc1ccc2c(c1)CC[C@@H]1[C@@H]2CC[C@@]2(C)[C@H]1CC[C@@]2(O)Cc1ccc(O)cc1 [17α-4'-Hydroxyphenylmethyl-3-methoxyestra-1,3,5(10)-triene-17-ol] | 2.64 | –
33 | C[C@]12CC[C@H]3[C@@H](CCC4=CC(=O)CC[C@@H]43)[C@@H]1CC[C@@]2(O)COc1ccc(O)cc1 [17α-4'-Hydroxyphenoxymethyl-17-hydroxyestr-4-ene-3-one] | 10.1 | –
